One test relates to UACC812. As to the kind of experiment: Growth inhibition (CTG assay), UACC812. The settings on record: Homo sapiens, UACC-812, PIK3CA wt, PTEN wt, average GI50, CTG assay. It is filed as cell-based. As for the experimental part: (§1) We used a panel of breast cancer cell lines that represent the heterogeneity seen in breast tumors for drug screening. Fixed numbers of cells were plated in 96 well plates. Using a Biotek liquid handling robot, cells were treated with nine two-fold dilutions of an AKT inhibitor (GSK690693), a second drug (lapatinib), or a combination of the two. Response was measured using CTG assay as % Growth Inhibition. 50% Growth Inhibition (GI50) was calculated. Synergistic interactions between drugs was calculated by standard median-effect method using % inhibition (inhibitory concentration) readings and reported as a combination index using the Synergy module in R.

Another test relates to HCC1954. Briefly: Growth inhibition (CTG assay), HCC1954. The format is cell-based. The settings on record: Homo sapiens, PIK3CA p.H1047R, average GI50, CTG assay. As for the experimental part:
as §1

A further test concerns SKBR3. Briefly: Growth inhibition (CTG assay), SKBR3. The settings on record: Homo sapiens, SK-BR-3, PIK3CA wt, PTEN wt, average GI50, CTG assay. It is filed as cell-based. The protocol: as §1
For the next test, the system named is AU565. Briefly: Growth inhibition (CTG assay), AU565. The format is cell-based. The settings on record: Homo sapiens, PIK3CA wt, PTEN wt, average GI50, CTG assay. As for the experimental part:
as §1

In the next test the test system is MDAMB453. As to the kind of experiment: Growth inhibition (CTG assay), MDAMB453. The format is cell-based. The settings on record: Homo sapiens, MDA-MB-453, PIK3CA p.H1047R, PTEN wt/p.E307K, average GI50, CTG assay. The protocol:
as §1

A further test concerns Akt. The settings on record: ATP-competitive; three Akt isoforms; cited from earlier work.
Another test relates to SUM190PT. As to the kind of experiment: Growth inhibition (CTG assay), SUM190PT. It is filed as cell-based. The conditions noted are these: Homo sapiens, PIK3CA p.H1047R, average GI50, CTG assay. The protocol: as §1
A further test deals with HCC202. Briefly: Growth inhibition (CTG assay), HCC202. It is filed as cell-based. The settings on record: Homo sapiens, PIK3CA p.E545K, average GI50, CTG assay. As for the experimental part:
as §1

A further test deals with SUM225. Briefly: Growth inhibition (CTG assay), SUM225. The format is cell-based. The settings on record: Homo sapiens, PIK3CA wt, average GI50, CTG assay. As for the experimental part:
as §1

The next test has as its system MDAMB175. As to the kind of experiment: Growth inhibition (CTG assay), MDAMB175. The conditions noted are these: Homo sapiens, PIK3CA wt, PTEN wt, not HER2 amplified, average GI50, CTG assay. It is filed as cell-based. The protocol:
as §1

In a further test the test system is BT474. As to the kind of experiment: Growth inhibition (CTG assay), BT474. The settings on record: Homo sapiens, BT-474, PIK3CA wt/p.K111N, average GI50, CTG assay. The format is cell-based. The protocol:
as §1, with “50% Growth Inhibition (GI50) was calculated.” left out

For another test, the system named is MDAMB361. Briefly: Growth inhibition (CTG assay), MDAMB361. It is filed as cell-based. The conditions noted are these: Homo sapiens, MDA-MB-361, PIK3CA wt/p.E545K, average GI50, CTG assay. The protocol: as §1
Another test deals with HCC1569. As to the kind of experiment: Growth inhibition (CTG assay), HCC1569. The format is cell-based. The settings on record: Homo sapiens, PIK3CA wt, PTEN p.K267fs*9, average GI50, CTG assay. The protocol:
as §1

For orientation: GI50 means the concentration at which growth is held to half of that of the control. As for `CCn1c(-c2nonc2N)nc2c(C#CC(C)(C)O)ncc(OC[C@H]3CCCNC3)c21` [AKT], the GI50 in the test with UACC812 is 0.041 µM; with HCC1954 it was 0.119 µM; in the test on SKBR3, 0.054 µM; with AU565, 0.109 µM; in the test on MDAMB453, 0.109 µM; in the test on SUM190PT, 0.229 µM. Besides, the concentration for 50% growth inhibition (GI50) with HCC202 was determined as 0.015 µM; with SUM225, 0.293 µM; in the test with MDAMB175, 0.027 µM; with BT474, 0.089 µM; with MDAMB361, 0.063 µM; in the test on HCC1569, 0.122 µM. Also, the “pan-Akt kinase inhibition potency” value in the test with Akt was “low-nanomolar”.
In the case of `CS(=O)(=O)CCNCc1ccc(-c2ccc3ncnc(Nc4ccc(OCc5cccc(F)c5)c(Cl)c4)c3c2)o1` [Lap, lapatinib], the concentration for 50% growth inhibition (GI50) was 0.106 µM in the test with UACC812; 0.673 µM in the test on HCC1954; 0.163 µM with SKBR3; 0.087 µM in the test with AU565; 0.922 µM in the test with MDAMB453; 0.806 µM with SUM190PT. Moreover, the concentration for 50% growth inhibition (GI50) with HCC202 was 0.068 µM; in the test on SUM225 it was 0.245 µM; with MDAMB175 it was 0.114 µM; with BT474, 0.116 µM; in the test with MDAMB361, 0.106 µM; in the test with HCC1569, 0.42 µM.

The record behind these values is patent publication US20130331405A1, “PIK3CA Mutation Status and SASH1 Expression Predicts Synergy Between Lapatinib and an AKT Inhibitor in HER2 Positive Breast Cancer” (THE REGENTS OF THE UNIVERSITY OF CALIFORNIA, priority 2012, published 2013).
